In ChEMBL document CHEMBL3044639, “Synthesis and biologic activities of some novel heterocyclic chalcone derivatives” (Med Chem Res, 2013):
The source made the active and inactive calls. The calls are words filed in the database; no cut-off is given here.

What was measured:
Rattus norvegicus = experiment: Anti-inflammatory activity in Wistar Rattus norvegicus (rat) assessed as inhibition of carrageenan-induced paw edema at 100 mg/kg, po administered 45 min prior to carrageenan-challenge measured 45 min to 4 hr post carrageenan-challenge relative to control; assay type: functional
[1] = system: Radical scavenging activity; experiment: Antioxidant activity assessed as DPPH radical scavenging activity after 20 min by microplate ELISA reader analysis; assay type: functional
Staphylococcus aureus [2] = experiment: Antibacterial activity against Staphylococcus aureus 1199B overexpressing NorA assessed as growth inhibition after 18 hr by broth checkerboard method; assay type: functional; settings: read-out: MEC
Staphylococcus aureus [3] = experiment: Antibacterial activity against Staphylococcus aureus 1199B overexpressing NorA assessed as reduction of ciprofloxacin MIC at MEC after 18 hr by broth checkerboard method relative to control; assay type: functional
PC-3 = experiment: Cytotoxicity against Homo sapiens (human) PC3 cells assessed as growth inhibition after 48 hr by MTT assay; assay type: functional, cell-based; settings: PC-3, 48 h
HL-60 = experiment: Cytotoxicity against Homo sapiens (human) HL60 cells assessed as growth inhibition after 48 hr by MTT assay; assay type: functional, cell-based; settings: HL-60, 48 h
HeLa = experiment: Cytotoxicity against Homo sapiens (human) HeLa cells assessed as growth inhibition after 48 hr by MTT assay; assay type: functional, cell-based
MOLT-4 = experiment: Cytotoxicity against Homo sapiens (human) MOLT4 cells assessed as growth inhibition after 48 hr by MTT assay; assay type: functional, cell-based; settings: MOLT-4, 48 h

Row | SMILES | inhibition in vivo at 100 mg/kg (Rattus norvegicus) [%] | Activity [1] | minimal effective concentration (Staphylococcus aureus [2]) [µg/mL] | fold change (FC) (Staphylococcus aureus [3]) | inhibition (Rattus norvegicus) | IC50 (PC-3) [µM] | IC50 (HL-60) [µM] | IC50 (HeLa) [µM] | IC50 (MOLT-4) [µM]
1 | COc1ccc(/C=C/C(=O)c2ccco2)cc1OC | 23 | inactive | > 50 | 0 | – | – | – | – | –
2 | COc1ccc(/C=C/C(=O)c2ccc[nH]2)cc1 | – | inactive | 25 | 2 | inactive | – | – | – | –
3 | O=C(/C=C/c1ccc(Br)cc1)c1ccc[nH]1 | – | inactive | > 50 | 0 | inactive | 44 | 32 | > 100 | 49
4 | O=C(/C=C/c1ccc(F)cc1)c1ccc[nH]1 | – | inactive | 25 | 2 | inactive | – | – | – | –
5 | O=C(/C=C/c1c(Cl)cccc1Cl)c1ccc[nH]1 | – | inactive | > 50 | 0 | inactive | – | – | – | –
6 | COc1ccc(/C=C/C(=O)c2ccc[nH]2)c(OC)c1 | – | inactive | 25 | 2 | inactive | – | – | – | –
7 | O=C(/C=C/c1ccc2c(c1)OCO2)c1ccco1 | – | inactive | > 50 | 0 | inactive | – | – | – | –
8 | COc1cc(/C=C/C(=O)c2ccco2)cc(OC)c1OC | – | inactive | > 50 | 0 | inactive | – | – | – | –
9 | COc1ccc(/C=C/C(=O)c2ccc[nH]2)cc1OC | – | inactive | > 50 | 0 | inactive | – | – | – | –
10 | O=C(/C=C/c1ccccc1)c1ccco1 | – | inactive | > 50 | 0 | inactive | > 100 | 100 | > 100 | > 100
11 | O=C(/C=C/c1ccc(Cl)cc1Cl)c1ccc[nH]1 | – | inactive | > 50 | 0 | inactive | 22 | 22 | 26 | 13
12 | COc1cccc(/C=C/C(=O)c2ccc[nH]2)c1 | – | inactive | > 50 | 0 | inactive | 24 | 16 | 30 | 28
13 | O=C(/C=C/c1ccccc1Br)c1ccc[nH]1 | – | inactive | 25 | 4 | inactive | 44 | 42 | 44 | 38
14 | COc1ccc(OC)c(/C=C/C(=O)c2ccco2)c1 | – | inactive | > 50 | 0 | inactive | – | – | – | –
15 | O=C(/C=C/c1ccc([N+](=O)[O-])cc1)c1ccc[nH]1 | – | inactive | > 50 | 0 | inactive | 13 | 14 | 26 | 15
16 | O=C(/C=C/c1cc([N+](=O)[O-])ccc1Cl)c1ccco1 | – | inactive | > 50 | 0 | inactive | 62 | 58 | > 100 | 72
17 | COc1cccc(OC)c1/C=C/C(=O)c1ccc[nH]1 | – | inactive | > 50 | 0 | inactive | – | – | – | –
18 | O=C(/C=C/c1ccc2c(c1)OCO2)c1ccc[nH]1 | – | inactive | > 50 | 0 | inactive | – | – | – | –
19 | O=C(/C=C/c1cccc(Cl)c1Cl)c1ccc[nH]1 | – | inactive | > 50 | 0 | inactive | – | – | – | –

Row | SMILES | inhibition in vivo at 100 mg/kg (Rattus norvegicus) [%] | Activity [1] | minimal effective concentration (Staphylococcus aureus [2]) [µg/mL] | fold change (FC) (Staphylococcus aureus [3]) | inhibition (Rattus norvegicus) | IC50 (PC-3) [µM] | IC50 (HL-60) [µM] | IC50 (HeLa) [µM] | IC50 (MOLT-4) [µM]
20 | COc1ccc(CCN(C)CCCC(C#N)(c2ccc(OC)c(OC)c2)C(C)C)cc1OC (configuration not stated) [VERAPAMIL] | – | – | 50 | 2 | – | – | – | – | –
21 | O=C(/C=C/c1cccc([N+](=O)[O-])c1)c1ccc[nH]1 | – | inactive | > 50 | 0 | inactive | 23 | 20 | 32 | 22
22 | COc1cccc(/C=C/C(=O)c2ccc[nH]2)c1OC | – | inactive | 25 | 4 | inactive | – | – | – | –
23 | COc1cccc(/C=C/C(=O)c2ccco2)c1OC | – | inactive | 25 | 4 | inactive | – | – | – | –
24 | O=C(/C=C/c1cccc([N+](=O)[O-])c1)c1ccco1 | – | inactive | > 50 | 0 | inactive | 14 | 14 | 22 | 18
25 | O=C(/C=C/c1ccccc1Cl)c1ccco1 | – | inactive | > 50 | 0 | inactive | 14 | 12 | 26 | 25
26 | O=C(/C=C/c1ccc([N+](=O)[O-])cc1)c1ccco1 | – | inactive | > 50 | 0 | inactive | – | – | – | –
27 | COC(=O)[C@H]1[C@H]2C[C@@H]3c4[nH]c5cc(OC)ccc5c4CCN3C[C@H]2C[C@@H](OC(=O)c2cc(OC)c(OC)c(OC)c2)[C@@H]1OC [RESERPINE] | – | – | 25 | 0 | – | – | – | – | –
28 | O=C(/C=C/c1ccc(Cl)cc1)c1ccco1 | – | inactive | > 50 | 0 | inactive | 29 | 19 | 38 | 23
29 | O=C(/C=C/c1ccc(Br)cc1)c1ccco1 | – | inactive | 25 | 2 | inactive | 58 | 48 | > 100 | 62
30 | CN(C)c1ccc(/C=C/C(=O)c2ccc[nH]2)cc1 | – | inactive | > 50 | 0 | inactive | – | – | – | –
31 | O=C(/C=C/c1ccccc1)c1ccc[nH]1 | – | inactive | > 50 | 0 | inactive | > 100 | > 100 | > 100 | > 100
32 | O=C(/C=C/c1ccc(Cl)cc1)c1ccc[nH]1 | – | inactive | > 50 | 0 | inactive | 18 | 13 | 25 | 22
33 | CN(C)c1ccc(/C=C/C(=O)c2ccco2)cc1 | – | inactive | 12.5 | 4 | inactive | 13 | 12 | 20 | 12
34 | O=C(/C=C/c1cc([N+](=O)[O-])ccc1Cl)c1ccc[nH]1 | – | inactive | > 50 | 0 | inactive | 55 | 38 | 68 | 42
35 | O=C(/C=C/c1ccc(F)cc1)c1ccco1 | – | inactive | > 50 | 0 | inactive | – | – | – | –
36 | COc1ccc(/C=C/C(=O)c2ccco2)cc1 | – | inactive | > 50 | 0 | inactive | – | – | – | –
37 | O=C(/C=C/c1ccccc1Br)c1ccco1 | – | inactive | > 50 | 0 | inactive | – | – | – | –
38 | O=C(/C=C/c1ccccc1Cl)c1ccc[nH]1 | – | inactive | 25 | 4 | inactive | – | – | – | –
